This assay concerns keratinocyte skin equivalents. Kind of assay: Three-dimensional keratinocyte skin equivalents stimulated with LP/LE-TCS, histology and epidermal thickness. It counts as cell-based, human. The note with it: 100 nM inhibitor, LP/LE-TCS 1:10 + zVAD + SMAC, 72 h. On the procedure:
Three-dimensional keratinocyte skin equivalents were generated as described before Arch Dermatol Res 296, 203-211 (2004)). Briefly, 3.0E^5 primary human keratinocytes were seeded in 500 µL keratinocyte medium with 1.5 mM CaCh into the insert and placed in a well containing the same medium. After two days, keratinocytes were exposed to the air-liquid interface and medium in the surrounding well was supplemented with 50 µg/mL Vitamin C. Nine days after airlift, the skin equivalents were pre-treated for 1 h with RIPK1 inhibitor (100 nM, SANOFI) followed by a stimulation with supernatant mix of lesional T cells from LP and LE patients (1: 10 diluted) in the presence of zVAD (20 µM, Cell Signaling, #60332), SMAC (1 µM, LC Laboratories, #B-9135) and the RIPK1 inhibitor for 72 h. Afterwards, membranes of the fixated skin equivalents were cut out with a scalpel, divided into two pieces, formalin fixed and embedded in paraffin. […] Concentrations of key cytokines in the supernatant mix of lesional T cells were determined by a multiplex ELISA (Biorad) and listed in Table S4. […]

The text below walks through data of patent EP4652998A1, “TREATMENT OF RECEPTOR-INTERACTING PROTEIN KINASE 1- MEDIATED DISEASE WITH ECLITASERTIB” (Technische Universität München, priority 2024, dated 2025).

SMILES strings stand for the structures.

For the molecule `CN1C(=O)[C@@H](NC(=O)c2nnc(Cc3ccccc3)[nH]2)COc2cccnc21` [SAR443122, 5-Benzyl-N-[(3S)-5-methyl-4-oxo-2,3-dihydropyrido[3,2-b][1,4]oxazepin-3-yl]-4H-1,2,4-triazole-3-carboxamide], the epidermal architecture result was “restored the normal epidermal architecture”. Where the note is “stimulated control 102.0 ± 5.1, unstimulated 61.3 ± 5.4, p<0.0001”, the epidermal thickness was determined as 80.3 ± 5.1 µm.
